Results on 19 molecules are retold here after patent US9126973B2, “Multiheteroaryl compounds as inhibitors of H-PGDS and their use for treating prostaglandin D2 mediated diseases” (Cayman Chemical Company, Incorporated, priority 2008, dated 2015).

In series [1] the target is T1, H-PGDS (Homo sapiens (Human), UniProt O60760). Description: H-PGDS Fluorescence Polarization Binding Assay (FPBA). The conditions noted are these: H-PGDS-MBP fusion enzyme, fluorescent probe, reduced glutathione 5 mM, 60-90 minutes at room temperature, 96-well format. Here is the method: H-PGDS Fluorescence Polarization Binding Assay This assay essentially is available from Cayman Chemical Company as Catalog item #600007. The test data reported for the aforementioned Examples (H-PGDS FPBA IC50) were generated using a 96-well, instead of the 384-well, format. […] Assays were performed in 96-well microtiter plates in 100 μL of total sample volume. Excitation and emission wavelengths appropriate for the employed detection analyte were used. […] Twelve clean microfuge tubes were labeled A1 through A12. […] Dimethyl sulfoxide (50 μL) was added to each of tubes A1 through A11. The HQL-79 control solution was serially diluted by removing 50 μL from tube A12 and placing it in tube A11 with subsequent thorough mixing of the contents of tube A11. Next, 50 μL was removed from tube A11 and was placed into tube A10 with subsequent thorough mixing of the contents of tube A10. This process was repeated for tubes A9 through A2. […] A test compound may be dissolved in DMSO, ethanol, or methanol at several concentrations when the titration endpoint is unknown. […] Assay cocktail (95 μL) was added to each plate well. DMSO (5 μL) from microfuge tube A1 was added to each plate well A1 and B1. Positive control solution (5 μL) from microfuge tube A2 was added to each plate well A2 and B2. Positive control solution (5 μL) from microfuge tube A3 was added to each plate well A3 and B3. This procedure was continued until all the positive control standard dilutions were aliquoted. Test compound solutions (5 μL) were added to the wells. […] The IC50 for a particular test compound was obtained by performing a full concentration titration versus a full concentration titration of positive control. Comparison of a single concentration of a test compound to the maximum binding well provided an assessment of the relative affinity of the test compound for H-PGDS-MBP. The plate was covered and incubated for 60-90 minutes at room temperature. The FP signal is stable for at least two hours. […] The measurements were taken in the fluorescent polarization mode with the z-height set to the middle of the well and the G-factor set to 1.13 on a Tecan Safire 2 reader.

The target of series [2] is T1, H-PGDS. Description: H-PGDS Inhibitor Enzyme Immunoassay (EIA). To be noted: 25 ng H-PGDS, 40 μM PGH2, 1 mM GSH; PGD2 quantified by EIA. The series is classed as biochemical. The protocol:
H-PGDS Inhibitor Enzyme Immunoassay
The assay detects and measures PGD2 generated by H-PGDS. The prostanoid product is quantified via enzyme immunoassay (EIA) using a specific PGD2 antibody.
The assay is carried out by the following steps: • 1. Inhibitor screening is performed in 100 mM Tris-HCl, pH 8.0 containing 1 mM GSH, 1 mM MgCl2, 4% inhibitor/DMSO, 40 μM PGH2 and 25 ng of PGDS in a total volume of 125 μL. • 2. A reaction mixture containing 100 mM Tris-HCl, pH 8.0, 1 mM GSH, 1 mM MgCl2, 25 ng H-PGDS and 4% inhibitor or DMSO (uninhibited reaction) is preincubated at 25° C. for 10 minutes. • 3. Reactions are initiated using 5 μL of PGH2 and quenched every 15 seconds for one minute. Reactions are quenched by taking 10 μL of reaction mixture and adding to 490 μL of 100 mM phosphate buffer containing 0.1% BSA, 400 mM NaCl, 1 mM EDTA, 20 mM FeCl2, 10% 1N HCl, and 0.01% azide to prevent the non-enzymatic formation of PGD2 from PGH2. The FeCl2 serves the purpose of reducing PGH2 to 12-HHT. (Quench buffer is kept on ice at all times). • 4. Quenched samples (5 μL) are further diluted 100 fold in 495 μL of 100 mM phosphate buffer containing 0.1% BSA, 400 mM NaCl, 1 mM EDTA, and 0.01% azide for the PGD2 EIA assay. (Dilution buffers are kept on ice at all times).
The final 5000 fold diluted samples are analyzed following the protocol outlined in Cayman Chemical's commercially available PGD2 EIA kit (Cat. #512021). 50 μL of diluted sample is analyzed at least in duplicate in the EIA assay and the amount of PGD2 formed is quantified using a standard curve.

The conditions of series [3]: background statement with literature references; cited from earlier work.

T1 sequence (O60760 whole entry, the tested form may be a part): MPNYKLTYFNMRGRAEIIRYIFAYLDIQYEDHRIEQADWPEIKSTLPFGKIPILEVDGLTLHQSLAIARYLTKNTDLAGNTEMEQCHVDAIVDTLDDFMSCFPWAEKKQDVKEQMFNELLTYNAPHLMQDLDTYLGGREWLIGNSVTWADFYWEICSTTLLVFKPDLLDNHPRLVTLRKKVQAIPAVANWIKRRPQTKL

Take `c1ccc(Cc2ncc(-c3cnc(-c4ccccc4)nc3)[nH]2)cc1` [Example 14, 5-(2-benzyl-1H-imidazol-5-yl)-2-phenylpyrimidine]: the melting point (as a rule, the temperature, or range, at which the solid turns liquid) is 235 °C. On H-PGDS [1], the IC50 (commonly the concentration that inhibits the measured activity by half) was 625 nM. At H-PGDS [2], this molecule yielded a half-maximal inhibitory concentration (IC50) of 59 nM.

On to `c1ccc(-c2ncc(-c3csc(-c4cccnc4)n3)cn2)cc1` [Example 59, 4-(2-phenylpyrimidin-5-yl)-2-(pyridin-3-yl)thiazole], for which the melting point amounted to 319 °C. The IC50 on H-PGDS [1] was determined as 1000 nM. The molecule also displayed an IC50 at H-PGDS [2] of 150 nM.

In turn, `c1ccc(-c2ncc(-c3cnc(-c4ccccc4)[nH]3)cn2)cc1` [Example 1, 2-phenyl-5-(2-phenyl-1H-imidazol-5-yl)pyrimidine] came in with a melting point of 253 °C. For the same molecule, the 50% inhibitory concentration (IC50) on H-PGDS [1] worked out at 250 nM. The same molecule gave an IC50 against H-PGDS [2] of 12 nM.

For the molecule `c1ccc(-c2ncc(-c3cnc(-c4ccncc4)[nH]3)cn2)cc1` [Example 13, 2-phenyl-5-(2-(pyridin-4-yl)-1H-imidazol-5-yl)pyrimidine], the melting point worked out at 300 °C. The concentration for half-maximal inhibition (IC50) at H-PGDS [1] worked out at 125 nM. Also, the half-inhibitory concentration (IC50) against H-PGDS [2] was found to be 75 nM.

In the case of `c1ccc(CN2CCC(c3ncc(-c4cnc(-c5ccccc5)nc4)[nH]3)CC2)cc1` [Example 19, 5-(2-(1-benzylpiperidin-4-yl)-1H-imidazol-5-yl)-2-phenylpyrimidine], the melting point is 223 °C. The same molecule had an IC50 on H-PGDS [1] of 80 nM. Besides, the half-inhibitory concentration (IC50) against H-PGDS [2] amounted to 6 nM.

`Cn1c(-c2cnc(-c3ccccc3)nc2)cnc1-c1ccccc1` [Example 3, 5-(1-methyl-2-phenyl-1H-imidazol-5-yl)-2-phenylpyrimidine]: the melting point was 211 °C. Also, at H-PGDS [1], the IC50 came to 625 nM. On H-PGDS [2], this molecule yielded an IC50 of 250 nM.

`Fc1cccc(-c2ncc(-c3cnc(-c4ccccc4)[nH]3)cn2)c1` [Example 6, 2-(3-fluorophenyl)-5-(2-phenyl-1H-imidazol-5-yl)pyrimidine] displayed a melting point of 240 °C. This molecule also gave an IC50 on H-PGDS [1] of 280 nM. On H-PGDS [2], this molecule displayed an IC50 of 47 nM.

The molecule `Fc1cccc(-c2ncc(-c3cnc(-c4cccnc4)[nH]3)cn2)c1` [Example 11, 2-(3-fluorophenyl)-5-(2-(pyridin-3-yl)-1H-imidazol-5yl)pyrimidine] came in with a melting point of 309 °C. The same molecule registered an IC50 on H-PGDS [1] of 156 nM. At H-PGDS [2], the midpoint of inhibition, the IC50, lay at 41 nM.

Consider `c1ccc(-c2ncc(-c3cnc(-c4cccnc4)[nH]3)cn2)cc1` [Example 10, 2-phenyl-5-(2-(pyridin-3-yl)-1H-imidazol-5-yl)pyrimidine], for which the melting point turned out to be 308 °C. The IC50 at H-PGDS [1] is 79 nM. The molecule also had an IC50 against H-PGDS [2] of 21 nM.

With `Cc1nc(-c2ccccc2)[nH]c1-c1cnc(-c2ccccc2)nc1` [Example 4, 5-(4-methyl-2-phenyl-1H-imidazol-5-yl)-2-phenylpyrimidine], the melting point came to 138 °C. The same molecule displayed a 50% inhibitory concentration (IC50) at H-PGDS [1] of 450 nM. Further, at H-PGDS [2], the IC50 came out at 82 nM.

Regarding `c1ccc(-c2ncc(-c3nnc(-c4ccccc4)[nH]3)cn2)cc1` [Example 49, 2-phenyl-5-(5-phenyl-4H-1,2,4-triazol-3-yl)pyrimidine], the melting point is 280 to 282 °C. Moreover, the IC50 at H-PGDS [1] is 1000 nM. Also, half-maximal inhibition against H-PGDS [2] (IC50) was put at 84 nM.

`c1ccc(Oc2ncc(-c3cnc(-c4cccnc4)[nH]3)cn2)cc1` [Example 40, 2-phenoxy-5-(2-(pyridin-3-yl)-1H-imidazol-4-yl)pyrimidine] registered a melting point of 236 °C. The IC50 on H-PGDS [1] came to 625 nM. On H-PGDS [2], this molecule gave an IC50 of 370 nM.

In the case of `c1ccc(C(OC2CCN(CCCc3nnn[nH]3)CC2)c2ccccc2)cc1` [HQL-79], in series [3], the “antiallergic and antiasthmatic activity in vivo” value was “antiallergic and antiasthmatic activity in vivo”.

`c1ccc(-c2ncc(-c3cnc(-c4ccccn4)[nH]3)cn2)cc1` [Example 9, 2-phenyl-5-(2-(pyridin-2-yl)-1H-imidazol-5-yl)pyrimidine] showed a melting point of 262 °C. This molecule also registered a half-maximal inhibitory concentration (IC50) on H-PGDS [1] of 125 nM. On H-PGDS [2], this molecule had a 50% inhibitory concentration (IC50) of 53 nM.

`CCOC(=O)c1cc(-c2cnc(Oc3ccccc3)nc2)[nH]n1` [Example 54, ethyl 5-(2-phenoxypyrimidin-5-yl)-1H-pyrazole-3-carboxylate]: the concentration for half-maximal inhibition (IC50) came to 1300 nM at H-PGDS [1] and 130 nM against H-PGDS [2].

For the molecule `C(=C\c1ncc(-c2cnc(-c3ccccc3)nc2)[nH]1)/c1cccnc1` [Example 15, (E)-2-phenyl-5-(2-(2-(pyridin-3-yl)vinyl)-1H-imidazol-5-yl)pyrimidine], the melting point turned out to be 258 °C. This molecule also had a half-maximal inhibitory concentration (IC50) on H-PGDS [1] of 150 nM. This molecule also displayed a 50% inhibitory concentration (IC50) on H-PGDS [2] of 23 nM.

`c1ccc(-c2ccc(-c3cnc(-c4ccccc4)[nH]3)cn2)cc1` [Example 2, 2-phenyl-5-(2-phenyl-1H-imidazol-5-yl)pyridine] gave a melting point of 206 °C. Besides, the IC50 on H-PGDS [1] came to 480 nM. The molecule also yielded a half-inhibitory concentration (IC50) against H-PGDS [2] of 97 nM.

As for `CN1CCN(C(=O)c2cc(-c3cnc(Oc4ccccc4)nc3)[nH]n2)CC1` [Example 57, (4-methylpiperazin-1-yl)(5-(2-phenoxypyrimidin-5-yl)-1H-pyrazol-3-yl)methanone], the IC50 was 650 nM on H-PGDS [1] and 420 nM on H-PGDS [2].

For `Fc1cccc(-c2ncc(-c3cnc(-c4ccccc4)nc3)[nH]2)c1` [Example 8, 5-(2-(3-fluorophenyl)-1H-imidazol-5-yl)-2-phenylpyrimidine], the melting point was determined as 221 °C. Also, the IC50 on H-PGDS [1] was 188 nM. At H-PGDS [2], this molecule displayed a concentration for half-maximal inhibition (IC50) of 4 nM.
